Data on seven molecules can be found in patent publication US8350076B2, “Sodium channel blockers” (University of Virginia Patent Foundation, priority 2002, dated 2013).

The test system of one data set is LNCaP. The data set can be described thus: Long-term growth assay (crystal violet), LNCaP. The class given is cell-based. The settings on record: Homo sapiens, 120 h, day 5, read-out: Day Five Effects on Cell line IC50 (μM) ± S.E.M., LNCaP.
For the next data set, the system named is DU-145. The data set can be described thus: Long-term growth assay (crystal violet), DU-145. The class given is cell-based. The settings on record: Homo sapiens, DU-145, 120 h; day 5; read-out: Day Five Effects on Cell line IC50 (μM) ± S.E.M., DU-145. As to the method:
(§1) C4-2 cells were plated at cell densities established previously to reach saturation at day 7. The cells were allowed to recover overnight before a media change with the analogues (all at 40 μM) was performed. The assays were terminated at day 1, 3, 5 and 7. Media changes were performed on day 0, 2, 4 and 6 with fresh analogues added each time. The cells were then fixed with glutaraldehyde and stained with crystal violet. The dye is then eluted in Sorenson's solution and the absorbance read at 540 nm. […] These assays were repeated for DU145, PC-3 and the paired metastatic cell line PC-3M. The data were normalized to the day 7 DMSO control for each cell line to allow for direct cell:cell comparison.

In another data set the test system is C4-2 cells. The data set can be described thus: Long-term growth assay (crystal violet), C4-2. The data set is classed as cell-based, human. The following applies: for growth of C4-2 cells (in words): 40 μM, 7 days with drug; for IC50: Homo sapiens, C4-2, 120 h, day 5, read-out: Day Five Effects on Cell line IC50 (μM) ± S.E.M., C4-2. As to the method: as §1
Data set [1] concerns PSA secretion by PCa C4-2 cells. The data set can be described thus: PSA secretion by PCa C4-2 cells. The data set is classed as cell-based, human. The following applies: for decrease of PSA secretion on a per cell basis: 40 μM. As to the method: PSA levels are clinically important in following tumor progression and burden. Sodium channel blockers 1, 2 and 44 (at 40 μM) and phenyloin at (100 μM) were investigated for their ability to suppress PSA secretion by PCa C4-2 cells.

Data set [2] relates to anchorage-independent colony formation. The data set can be described thus: Soft agarose colony formation (SACF), 3-D growth. The data set is classed as cell-based. The settings on record: for inhibition in 3-D growth (SACF) as compared to phenytoin: same concentration as 2-D.
The subject of the next data set is PC3. The data set can be described thus: Long-term growth assay (crystal violet), PC3. The settings on record: Homo sapiens, PC-3, 120 h; day 5; read-out: Day Five Effects on Cell line IC50 (μM) ± S.E.M., PC3. The data set is classed as cell-based. As to the method: as §1
Data set [3] concerns all PCa cell lines tested (C4-2, DU145, PC-3, PC-3M). The data set can be described thus: Long-term growth assay, panel of PCa cell lines. The class given is cell-based, human. As to the method:
as §1

The test system of a further data set is cell growth in 2-D. The data set can be described thus: 2-D growth assay. The data set is classed as cell-based. The following applies: molar equivalence to the phenytoin IC50.
The subject of a further data set is PC-3M. The data set can be described thus: Long-term growth assay (crystal violet), PC-3M. The settings on record: Homo sapiens, 120 h, day 5, read-out: Day Five Effects on Cell line IC50 (μM) ± S.E.M., PC-3M. The class given is cell-based. As to the method: as §1
The subject of data set [4] is PC-3 cells. The data set can be described thus: 3H-thymidine uptake (DNA synthesis) in PC-3 cells. The settings on record: for inhibition at 1 µM / inhibition at 10 µM / inhibition at 20 µM / inhibition at 40 µM / inhibition at 100 µM: Homo sapiens, read-out: % Inhibition of PC3 Cells; for inhibition at 1 µM: PC-3, 1 μM; for inhibition at 10 µM: PC-3, 10 μM; for inhibition at 20 µM: PC-3, 20 μM; for inhibition at 40 µM: PC-3, 40 μM; for inhibition at 100 µM: PC-3, 100 μM; for effect on DNA synthesis (in words): dosages tested 1-100 μM. The data set is classed as cell-based, human. As to the method:
The novel sodium channel blockers were assayed for activity against paired sets of cell lines with increasing metastatic potential, PC-3 and PC-3M (already androgen independent, AI), or increasing metastatic potential with increasing androgen independence, LNCaP and C4-2. DU145 was also included to provide another AI cell line with intermediate tumorigenicity between the LNCaP series and the PC-3 derivatives. This strategy allows an examination of at least three different genotypes for comparison of drug efficacy. […] The first assay used to screen these compounds was 3H-thymidine uptake in PC-3 cells. The cells were trypsinized, equal cell numbers were placed into each well and allowed to recover overnight.

Data set [5] has as its system sodium channel (BTX site 2). The data set can be described thus: 3H-BTX-B binding inhibition. The settings on record: for IC50: 3H-BTX-B Inhibition Data. The source says:
One assay used to screen compounds for modulators of sodium channel activity, is based on the use of the radioligand 3-[H]-BTX-B assay. BTX binds to site 2 on the channel protein and thus compounds that can compete with or inhibit BTX binding to the sodium channel are potential sodium channel inhibitors. This assay represents a facile tool to prescreen sodium channel binding before evaluating compounds in more rigorous functional assays such as through electrophysiology.

The target in another data set is Nav1.5 (Homo sapiens, UniProt Q14524). The data set can be described thus: Electrophysiology, sodium currents in CHO cells stably expressing Nav1.5.
Nav1.5, sequence (Q14524 whole entry): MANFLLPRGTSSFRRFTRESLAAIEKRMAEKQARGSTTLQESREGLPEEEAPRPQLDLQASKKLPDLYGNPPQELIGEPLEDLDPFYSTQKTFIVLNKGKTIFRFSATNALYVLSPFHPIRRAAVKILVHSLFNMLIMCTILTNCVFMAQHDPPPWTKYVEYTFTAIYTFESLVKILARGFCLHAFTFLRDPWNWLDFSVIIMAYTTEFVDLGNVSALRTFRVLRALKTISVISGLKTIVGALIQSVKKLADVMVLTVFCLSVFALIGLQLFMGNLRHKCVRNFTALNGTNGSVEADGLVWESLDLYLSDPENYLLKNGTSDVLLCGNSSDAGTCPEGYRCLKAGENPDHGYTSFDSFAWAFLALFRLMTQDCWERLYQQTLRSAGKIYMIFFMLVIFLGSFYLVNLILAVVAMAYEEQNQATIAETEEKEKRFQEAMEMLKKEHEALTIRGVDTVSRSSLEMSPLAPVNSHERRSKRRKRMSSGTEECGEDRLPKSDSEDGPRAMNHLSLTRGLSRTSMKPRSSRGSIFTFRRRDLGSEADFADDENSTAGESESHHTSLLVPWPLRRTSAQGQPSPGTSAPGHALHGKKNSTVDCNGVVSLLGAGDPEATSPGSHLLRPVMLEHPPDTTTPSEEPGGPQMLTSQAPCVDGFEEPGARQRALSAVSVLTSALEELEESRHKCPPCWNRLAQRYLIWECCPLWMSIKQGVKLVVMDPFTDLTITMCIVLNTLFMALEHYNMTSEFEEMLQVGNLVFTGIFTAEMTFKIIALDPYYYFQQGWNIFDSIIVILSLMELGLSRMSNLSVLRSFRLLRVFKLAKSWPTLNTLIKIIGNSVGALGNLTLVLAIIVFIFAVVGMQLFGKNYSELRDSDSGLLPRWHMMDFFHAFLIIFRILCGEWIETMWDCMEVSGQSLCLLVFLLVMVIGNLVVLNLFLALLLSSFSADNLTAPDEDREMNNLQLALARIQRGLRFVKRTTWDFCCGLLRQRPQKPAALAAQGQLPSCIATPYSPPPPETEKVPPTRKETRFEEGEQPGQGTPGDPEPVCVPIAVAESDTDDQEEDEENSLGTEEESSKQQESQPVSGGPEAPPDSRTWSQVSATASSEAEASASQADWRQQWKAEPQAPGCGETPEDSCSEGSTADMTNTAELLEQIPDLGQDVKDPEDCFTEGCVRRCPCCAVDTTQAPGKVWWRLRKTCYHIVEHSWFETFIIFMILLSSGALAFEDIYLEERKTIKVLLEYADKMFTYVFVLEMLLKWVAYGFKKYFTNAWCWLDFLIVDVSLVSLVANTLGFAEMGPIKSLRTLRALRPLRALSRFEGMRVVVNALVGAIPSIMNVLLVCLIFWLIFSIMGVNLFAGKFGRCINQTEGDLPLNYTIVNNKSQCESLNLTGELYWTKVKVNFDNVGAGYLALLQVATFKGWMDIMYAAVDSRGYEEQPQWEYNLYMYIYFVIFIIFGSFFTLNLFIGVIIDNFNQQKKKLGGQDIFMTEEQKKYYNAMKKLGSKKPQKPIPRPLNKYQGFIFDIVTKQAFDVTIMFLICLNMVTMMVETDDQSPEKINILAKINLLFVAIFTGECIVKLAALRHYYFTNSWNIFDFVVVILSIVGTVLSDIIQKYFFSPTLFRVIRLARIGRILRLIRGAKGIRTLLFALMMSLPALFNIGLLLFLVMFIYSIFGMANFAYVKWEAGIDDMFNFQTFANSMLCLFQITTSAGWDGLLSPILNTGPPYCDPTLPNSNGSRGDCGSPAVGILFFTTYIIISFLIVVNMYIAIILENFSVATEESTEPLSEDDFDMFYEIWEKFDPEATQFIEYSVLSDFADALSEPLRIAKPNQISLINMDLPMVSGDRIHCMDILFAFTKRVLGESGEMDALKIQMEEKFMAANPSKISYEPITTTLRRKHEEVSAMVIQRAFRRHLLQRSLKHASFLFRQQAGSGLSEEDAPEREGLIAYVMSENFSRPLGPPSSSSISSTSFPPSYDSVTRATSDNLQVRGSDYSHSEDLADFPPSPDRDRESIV
In a further data set the test system is MAT-LyLu cells. The following applies: 6 µM; cited from earlier work.
Data set [6] deals with PC-3 cells. The settings on record: cited from earlier work.

As usually defined, the IC50 is the concentration needed to halve the response being measured. As usually defined, the inhibition is the change of the read-out against control, counted positive when it falls. Broadly, the EC50 is the concentration needed to bring the measured effect to its halfway point. High values mean a need for much substance, low ones an effect from little substance.

The structures appear in SMILES notation. Read-outs that look alike come from different tables or passages of the source. Marks after values point to notes of the source that are not given here.

On to `CCCCCCCC(O)(C(N)=O)c1cccc(Cl)c1` (stereo not shown) [Compound 1], for which the concentration for half-maximal inhibition (IC50) in the data set on LNCaP was 72.2 ± 0.1 µM; in the data set on DU-145 it was 56 ± 0.7 µM; with C4-2 cells, 51.3 ± 0.2 µM; in [1] (Homo sapiens, C4-2, dose-response curve, read-out: IC50 for reducing PSA), about 10 µM; in the data set with PC3, 66 ± 0.7 µM; with PC-3M it was 61.9 ± 0.1 µM. The “growth of C4-2 cells (in words)” value in the data set on C4-2 cells was “remarkable inhibition of growth”. Also, the “decrease of PSA secretion on a per cell basis” value (“decrease … per cell basis” for short) in data set [1] was found to be 42.5%. For the same molecule, the “inhibition in 3-D growth (SACF) as compared to phenytoin” value in data set [2] is recorded as “approximately 87.2%”. In addition, the “Number of mice with impaired balance on the rotating rod/total # of animals tested” value is listed as 0/4 in the data set on mice (30 mg/kg i.p., 0.5 hours); 0/2 with mice (30 mg/kg i.p., 4.0 hours); 0/4^a with mice (100 mg/kg i.p., 0.25 hours); 1/8 with mice (100 mg/kg i.p., 0.5 hours); 1/8 in the data set on mice (100 mg/kg i.p., 1.0 hours); 3/4 with mice (300 mg/kg i.p., 0.5 hours). The “Number of mice with impaired balance on the rotating rod/total # of animals tested” value in the data set on mice (300 mg/kg i.p., 4.0 hours) was 0/2. The tolerated dose result in the data set on mice (mice, i.p., acute) is recorded as “up to 300 mg/kg”. Moreover, the “cells' growth, % of controls (maximum inhibition)” value in [3] (normalized to day 7 DMSO control) is 20-25 % of controls. The “inhibition in 2-D growth assays” value in the data set with cell growth in 2-D is given as 66.3%.

In the case of `CCCCCCCC(O)(C(N)=O)c1ccc(Cl)cc1` (stereo not shown) [Compound 2], the IC50 in the data set on LNCaP stood at 64.1 ± 4.3 µM. For the same molecule, the concentration for half-maximal inhibition (IC50) with DU-145 was found to be 67.2 ± 0.1 µM. In addition, in the data set on PC-3 cells [4], the inhibition at 1 µM is -3.61%, the inhibition at 10 µM came out at 25.2%, the inhibition at 20 µM worked out at 44.6% and the inhibition at 40 µM is 48.9%. In the data set with PC-3 cells [4], the inhibition at 100 µM worked out at 96.2% and the “effect on DNA synthesis (in words)” value is “inhibited DNA synthesis better than phenyloin at all dosages tested”. In addition, the IC50 in the data set on C4-2 cells was 61.1 ± 0.1 µM. Also, the “decrease … per cell basis” value in [1] turned out to be 41.8%. In [2], the “enhanced inhibition using SACF, % of phenytoin” value is 41.5 % of phenyloin and the “inhibition in 3-D growth (SACF) as compared to phenytoin” value is listed as about 62%. Further, the half-inhibitory concentration (IC50) in the data set with PC3 worked out at 66.8 ± 1.2 µM. For the same molecule, in [5], the “inhibition of 3H-BTX-B binding in comparison to phenytoin” value was “effective inhibition”. For the same molecule, in the data set with cell growth in 2-D, the “inhibition in 2-D growth assays” value is on record as 42.3%. Further, the IC50 with PC-3M was found to be 50 µM. In addition, the response at Nav1.5 was half-maximal at 12.7 ± 2.7 µM (EC50).

Molecule `CCCCCCCC(O)(C(N)=O)c1ccc(F)cc1` (stereo not shown) [Compound 9] yielded an EC50 on Nav1.5 of 34.2 ± 7.4 µM.

Turning to `CCCCCCCC1(c2ccccc2)NC(=O)NC1=O` (stereo not shown) [Compound 44], in the data set with LNCaP, the half-inhibitory concentration (IC50) amounted to 71.8 ± 1.8 µM. For the same molecule, in the data set on DU-145, the half-inhibitory concentration (IC50) came out at 35.6 ± 2.6 µM. Moreover, the “% Inhibition of PC3 Cells” value in the data set with PC-3 cells [4] (40 μM) came to 55.09%. Also, in the data set with PC-3 cells [4], the inhibition at 1 µM came out at 12.8%, the inhibition at 10 µM was found to be 26.6%, the inhibition at 20 µM is 32.7% and the inhibition at 40 µM was 55%. Further, in the data set on PC-3 cells [4], the inhibition at 100 µM is 82% and the “effect on DNA synthesis (in words)” value is “inhibited DNA synthesis better than phenyloin at all dosages tested”. Also, the half-inhibitory concentration (IC50) in the data set with C4-2 cells amounted to 67.4 ± 1.3 µM. In data set [1], the “decrease … per cell basis” value stood at 14.9%. The IC50 in the data set with PC3 was 66 ± 0.1 µM. Besides, in data set [3] (long-term growth assay), the “selectivity of growth inhibition (in words)” value is recorded as “cell selective inhibition of growth”. Besides, in data set [5], the “inhibition of 3H-BTX-B binding in comparison to phenytoin” value is given as “effective inhibition” and the IC50 is 5 ± 1 µM. Further, the IC50 in the data set with PC-3M was determined as 58.4 µM. Also, on Nav1.5, the EC50 came to 29.8 ± 4.2 µM.

For `O=C1NC(=O)C(c2ccccc2)(c2ccccc2)N1` [phenytoin, reference compound], in the data set on PC-3 cells [4], the inhibition at 1 µM was -23.8%, the inhibition at 10 µM was -13.9%, the inhibition at 20 µM is -21.8% and the inhibition at 40 µM is -12.5%. Moreover, in the data set with PC-3 cells [4], the inhibition at 100 µM was 30.8% and the “effect on DNA synthesis (in words)” value is reported as “stimulatory”. For the same molecule, the inhibition at 100 µM in data set [1] (Homo sapiens, C4-2, 100 μM) is 17.8%. The “inhibition of SACF compared to the DMSO/EtOH control plates” value in data set [2] is recorded as 25.7%. This molecule showed a half-maximal inhibitory concentration (IC50) in data set [5] of 40 µM. This molecule returned a 50% effective concentration (EC50) on Nav1.5 of over 200 µM.

Consider `CCN(CC)CC(=O)Nc1c(C)cccc1C` [lidocaine, reference compound], for which the “growth of C4-2 cells (in words)” value with C4-2 cells is recorded as “mildly stimulatory”.

For the molecule `NC1=N[C@H](O)[C@H]2[C@H]3O[C@]4(O)O[C@@H]([C@@H](O)[C@@]2(N1)[C@@H]4O)[C@]3(O)CO` [TTX, Tetrodotoxin], the “inhibition of invasiveness of MAT-LyLu cells in vitro” value in the data set on MAT-LyLu cells was “up to 50%”. In addition, the “reduction of invasiveness of PC-3 cells” value with PC-3 cells [6] is reported as 31%.
